The test has as its target T1, Brd4 bromodomain 1 (Homo sapiens, UniProt O60885).
T1 construct: made in house; host or cells: E. coli BL21(DE3)
Put plainly: Inhibition of binding of tetra-acetylated histone H4 to Brd4 bromodomain 1 (TR-FRET). To be noted: His-tagged Brd4 bromodomain 1 200 nM, tetra-acetylated histone H4 peptide 25-50 nM, 2 hours room temperature. The protocol: Proteins were cloned and overexpressed with a N-terminal 6×His tag, then purified by nickel affinity followed by size exclusion chromatography. Briefly, E. coli BL21(DE3) cells were transformed with a recombinant expression vector encoding N-terminally Nickel affinity tagged bromodomains from Brd2, Brd3, Brd4. Cell cultures were incubated at 37° C. with shaking to the appropriate density and induced overnight with IPTG. The supernatant of lysed cells was loaded onto Ni-IDA column for purification. Eluted protein was pooled, concentrated and further purified by size exclusion chromatography. Fractions representing monomeric protein were pooled, concentrated, aliquoted, and frozen at −80° C. for use in subsequent experiments.
For inhibition assays, serially diluted test compound was added to these reactions in a 0.2% final concentration of DMSO. Final buffer concentrations were 30 mM HEPES pH 7.4, 30 mM NaCl, 0.3 mM CHAPS, 20 mM phosphate pH 7.0, 320 mM KF, 0.08% BSA). […] The binding inhibitory activity was shown by a decrease in 665 nm fluorescence relative to 620 nm. IC50 values were determined from a dose response curve.
(Time-resolved FRET reads energy transfer from a long-lived donor to a nearby acceptor.)

The text below walks through data of patent publication US20130281399A1, “TREATMENT OF DISEASES BY EPIGENETIC REGULATION” (RVX Therapeutics Inc., priority 2012, published 2013).

As for `COc1cc(OC)c2c(=O)[nH]c(-c3ccc(N4C[C@@H](C)N[C@@H](C)C4)cc3)nc2c1` [Example 37, 2-(4-((3R,5S)-3,5-Dimethylpiperazin-1-yl)phenyl)-5,7-dimethoxyquinazolin-4(3H)-one], the “FRET activity (<50 uM)” value is “Active”.

As to `COc1cc(OC)c2c(=O)[nH]c(-c3ccc(N4CCN(C(C)=O)C(C)C4)cc3)nc2c1` (centres unmarked) [Example 38, 2-(4-(4-Acetyl-3-methylpiperazin-1-yl)phenyl)-5,7-dimethoxyquinazolin-4(3H)-one], the “FRET activity (<50 uM)” value is listed as “Active”.

In the case of `COc1cc(OC)c2c(=O)[nH]c(-c3ccc(N4CCC(NC(C)=O)C4)cc3)nc2c1` (centres unmarked) [Example 39, N-(1-(4-(5,7-Dimethoxy-4-oxo-3,4-dihydroquinazolin-2-yl)phenyl)pyrrolidin-3-yl)acetamide], the “FRET activity (<50 uM)” value is listed as “Active”. Then `COc1cc(OC)c2c(=O)[nH]c(-c3ccc(N4CCC(N(C(C)=O)C(C)C)CC4)cc3)nc2c1` [Example 40, N-(1-(4-(5,7-dimethoxy-4-oxo-3,4-dihydroquinazolin-2-yl)phenyl)piperidin-4-yl)-N-isopropylacetamide], with “Inactive”. Consider `CC(C)N1CCN(c2ccc(-c3nc4cccc(Cl)c4c(=O)[nH]3)cc2)CC1` [Example 41, 5-Chloro-2-(4-(4-isopropylpiperazin-1-yl)phenyl)quinazolin-4(3H)-one], for which the “FRET activity (<50 uM)” value was “Inactive”. For the compound `COc1cc(OC)c2c(=O)[nH]c(-c3ccc(N4C[C@@H](C)N(C(C)C)[C@@H](C)C4)cc3)nc2c1` [Example 42, 2-(4-((3R,5S)-4-Isopropyl-3,5-dimethylpiperazin-1-yl)phenyl)-5,7-dimethoxyquinazolin-4(3H)-one], the “FRET activity (<50 uM)” value was “Active”. Next, `COc1cc(OC)c2c(=O)[nH]c(-c3ccc(C4CCNCC4)cc3)nc2c1` [Example 43, 5,7-Dimethoxy-2-(4-(piperidin-4-yl)phenyl)quinazolin-4(3H)-one]: “Active”; `CNC1CCN(c2ccc(-c3nc4cc(OC)cc(OC)c4c(=O)[nH]3)cc2)C1` (centres unmarked) [Example 44, 5,7-Dimethoxy-2-(4-(3-(methylamino)pyrrolidin-1-yl)phenyl)quinazolin-4(3H)-one]: “Active”.

As for `COc1cc(OC)c2c(=O)[nH]c(-c3ccc(N4CCC(N(C)C(C)=O)C4)cc3)nc2c1` (centres unmarked) [Example 46, N-(1-(4-(5,7-dimethoxy-4-oxo-3,4-dihydroquinazolin-2-yl)phenyl)pyrrolidin-3-yl)-N-methylacetamide], the “FRET activity (<50 uM)” value is “Active”. Next, `COc1cc(OC)c2c(=O)[nH]c(-c3ccc(N4CCC(NC(C)C)CC4)cc3)nc2c1` [Example 47, 2-(4-(4-(Isopropylamino)piperidin-1-yl)phenyl)-5,7-dimethoxyquinazolin-4(3H)-one]: “Active”; `COc1cc(OC)c2c(=O)[nH]c(-c3ccc(N4CCNC(C)C4)cc3)nc2c1` (centres unmarked) [Example 48, 5,7-Dimethoxy-2-(4-(3-methylpiperazin-1-yl)phenyl)quinazolin-4(3H)-one]: “Active”; `COc1cc(OC)c2c(=O)[nH]c(-c3ccc(N4CCC(N(Cc5ccccc5)C(C)=O)CC4)nc3)nc2c1` [Example 49, N-Benzyl-N-(1-(5-(5,7-dimethoxy-4-oxo-3,4-dihydroquinazolin-2-yl)pyridin-2-yl)piperidin-4-yl)acetamide]: “Active”. Then `COc1cc(OC)c2c(=O)[nH]c(-c3ccc(N4CCC(NCc5ccccc5)CC4)nc3)nc2c1` [Example 50, 2-(6-(4-(Benzylamino)piperidin-1-yl)pyridin-3-yl)-5,7-dimethoxyquinazolin-4(3H)-one], with “Active”; and `COc1cc(OC)c2c(=O)[nH]c(-c3ccc(N4CCN(C=O)CC4)cc3)nc2c1` [Example 51, 4-(4-(5,7-Dimethoxy-4-oxo-3,4-dihydroquinazolin-2-yl)phenyl)piperazine-1-carbaldehyde], with “Active”; and `COc1cc(OC)c2c(=O)[nH]c(-c3ccc(N4CCC(=O)CC4)cc3)nc2n1` [Example 52, 5,7-Dimethoxy-2-(4-(4-oxopiperidin-1-yl)phenyl)pyrido[2,3-d]pyrimidin-4(3H)-one], with “Inactive”.

Regarding `COc1cc(OC)c2c(=O)[nH]c(-c3ccc4[nH]c(CO)cc4c3)nc2c1` [Example 53, 2-(2-(Hydroxymethyl)-1H-indol-5-yl)-5,7-dimethoxyquinazolin-4(3H)-one], the “FRET activity (<50 uM)” value is “Active”. Next, `COc1cc(OC)c2c(=O)[nH]c(-c3ccc4[nH]c(CCO)cc4c3)nc2c1` [Example 54, 2-(2-(2-Hydroxyethyl)-1H-indol-5-yl)-5,7-dimethoxyquinazolin-4(3H)-one]: “Active”; `COc1cc(OC)c2c(=O)[nH]c(-c3ccc4[nH]c(CN5CCCC5)cc4c3)nc2c1` [Example 55, 5,7-Dimethoxy-2-(2-(pyrrolidin-1-ylmethyl)-1H-indol-5-yl)quinazolin-4(3H)-one]: “Active”; `COc1cc(OC)c2c(=O)[nH]c(-c3ccc4[nH]c(CCN5CCCC5)cc4c3)nc2c1` [Example 57, 5,7-Dimethoxy-2-(2-(2-(pyrrolidin-1-yl)ethyl)-1H-indol-5-yl)quinazolin-4(3H)-one]: “Active”. Regarding `COc1cc(OC)c2c(=O)[nH]c(-c3ccc4[nH]c(CN(C)C)cc4c3)nc2c1` [Example 58, 2-(2-((Dimethylamino)methyl)-1H-indol-5-yl)-5,7-dimethoxyquinazolin-4(3H)-one], the “FRET activity (<50 uM)” value is listed as “Active”. Then `COc1cc(OC)c2c(=O)[nH]c(-c3ccc(NS(C)(=O)=O)cc3)nc2c1` [Example 59, N-(4-(5,7-Dimethoxy-4-oxo-3,4-dihydroquinazolin-2-yl)phenyl)methanesulfonamide], with “Active”; and `COc1cc(OC)c2c(=O)[nH]c(-c3ccc(Nc4ccncc4)cc3)nc2c1` [Example 60, 5,7-Dimethoxy-2-(4-(pyridin-4-ylamino)phenyl)quinazolin-4(3H)-one], with “Active”; and `COc1cc(OC)c2c(=O)[nH]c(-c3ccc(Nc4ccc(C)cc4)cc3)nc2c1` [Example 61, 5,7-Dimethoxy-2-(4-(p-tolylamino)phenyl)quinazolin-4(3H)-one], with “Inactive”. Then `COc1cc(OC)c2c(=O)[nH]c(-c3ccc(Nc4cccnc4)cc3)nc2c1` [Example 62, 5,7-Dimethoxy-2-(4-(pyridin-3-ylamino)phenyl)quinazolin-4(3H)-one], with “Active”; and `COc1cc(OC)c2c(=O)[nH]c(-c3ccc(OC4CCN(C(=O)N(C)C)CC4)cc3)nc2c1` [Example 63, 4-(4-(5,7-Dimethoxy-4-oxo-3,4-dihydroquinazolin-2-yl)phenoxy)-N,N-dimethylpiperidine-1-carboxamide], with “Active”; and `COc1cc(OC)c2c(=O)[nH]c(-c3ccc(OC4CCN(C(C)=O)CC4)cc3)nc2c1` [Example 64, 2-(4-(1-Acetylpiperidin-4-yloxy)phenyl)-5,7-dimethoxyquinazolin-4(3H)-one], with “Active”.
